This is an account of results in the supplement of paper PMC10307832.

Compound in the assay “Adavosertib + Navitoclax”: C=CCn1c(=O)c2cnc(Nc3ccc(N4CCN(C)CC4)cc3)nc2n1-c1cccc(C(C)(C)O)n1 [Adavosertib] + CC1(C)CCC(c2ccc(Cl)cc2)=C(CN2CCN(c3ccc(C(=O)NS(=O)(=O)c4ccc(N[C@H](CCN5CCOCC5)CSc5ccccc5)c(S(=O)(=O)C(F)(F)F)c4)cc3)CC2)C1 [Navitoclax] (partner 0.5 µM)
Briefly: relative viability (nuclei count vs DMSO), 5 days (fraction); higher = more cells survive. A digest of the protocol:
(§1)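 Five library-drug doses in √10 steps were combined with a fixed anchor-drug dose, or a single drug was given alone, by pin tool to lung cancer cell lines in 1536-well plates the day after seeding. Nuclei were stained and counted after 5 days. Relative viability is the nuclei count in treated wells over that in vehicle wells, taken as the median of duplicate plates.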

Compound in the assay “Nelarabine + Foretinib”: COc1nc(N)nc2c1ncn2[C@@H]1O[C@H](CO)[C@@H](O)[C@@H]1O [Nelarabine] + COc1cc2c(Oc3ccc(NC(=O)C4(C(=O)Nc5ccc(F)cc5)CC4)cc3F)ccnc2cc1OCCCN1CCOCC1 [Foretinib] (partner 0.25 µM)
The assay is described as above. A digest of the protocol:
as §1

On to ChaGo-K-1, for which the relative viability in the assay with Adavosertib + Navitoclax (first compound 0.01 µM) is 0.84; in the assay with Adavosertib + Navitoclax (first compound 0.03162 µM), 0.877; with Adavosertib + Navitoclax (first compound 0.1 µM), 0.934; with Adavosertib + Navitoclax (first compound 0.3162 µM) it was 0.729; in the assay with Nelarabine + Foretinib (first compound 0.01 µM), 0.971; in the assay with Nelarabine + Foretinib (first compound 0.03162 µM), 0.826. Moreover, the relative viability with Nelarabine + Foretinib (first compound 0.1 µM) came out at 0.82; with Nelarabine + Foretinib (first compound 0.3162 µM) it was 0.947; with Nelarabine + Foretinib (first compound 1 µM), 0.882.
